From US10898481B2 (priority 2018, dated 2021)

How the values were obtained:
[1] = biological target: hA2b/CHO (Homo sapiens (Human), UniProt P29275); assay: cAMP inhibition assay in hA2b/CHO cells, 10 μM adenosine; format: cell-based; details: read-out: cAMP & FLIPR IC50 (nM) hA2b;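 note: cells exposed to compound 30 min at 37 °C, then stimulated with adenosine a further 30 min, cAMP read after 60 min at room temperature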
Procedure: (§1) hA2a/CHO, hA2b/CHO, hA3/CHO and mA2a/CHO (Genscript) were plated at 5×10^3 cells/well into 384-well polystyrene plates at the day of experiment. Compounds were pre-incubated with cells for 30 min at 37° C., 5% CO2. Then 10 μM adenosine was added to the cells and incubated for 30 min at 37° C., 5% CO2. Detection reagent (CISBIO) was added and the plates were incubated for 60 min at room temperature. The signal was captured by Envision.

[2] = biological target: mA2a/CHO (Mus musculus (Mouse), UniProt Q60613); assay: cAMP inhibition assay in mA2a/CHO cells, 10 μM adenosine; format: cell-based; details: read-out: cAMP & FLIPR IC50 (nM) mA2a;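 note: compounds preincubated 30 min at 37 °C before the adenosine challenge, then 30 min further stimulation, readout after 60 min detection reagent incubation at room temperature in 384-well plates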
mA2a/CHO, sequence (Q60613 whole entry): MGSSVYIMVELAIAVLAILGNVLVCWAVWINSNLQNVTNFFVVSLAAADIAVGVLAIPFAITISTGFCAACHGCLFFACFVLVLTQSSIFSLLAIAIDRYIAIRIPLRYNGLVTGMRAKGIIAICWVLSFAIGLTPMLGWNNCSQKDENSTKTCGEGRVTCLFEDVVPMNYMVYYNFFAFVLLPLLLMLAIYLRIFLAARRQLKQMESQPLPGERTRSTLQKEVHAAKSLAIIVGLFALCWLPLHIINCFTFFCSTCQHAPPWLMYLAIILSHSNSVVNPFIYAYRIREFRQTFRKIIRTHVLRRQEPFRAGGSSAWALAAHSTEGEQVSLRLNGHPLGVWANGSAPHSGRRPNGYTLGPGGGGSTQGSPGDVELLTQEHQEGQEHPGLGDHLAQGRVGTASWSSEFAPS
Procedure: as §1

[3] = biological target: hA2a/CHO (Homo sapiens (Human), UniProt P29274); assay: cAMP inhibition assay in hA2a/CHO cells, 10 μM adenosine; format: cell-based; details: read-out: cAMP & FLIPR IC50 (nM) hA2a;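 note: compounds added to cells 30 min ahead of adenosine, then a further 30 min at 37 °C with adenosine before cAMP detection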
hA2a/CHO, sequence (P29274 whole entry): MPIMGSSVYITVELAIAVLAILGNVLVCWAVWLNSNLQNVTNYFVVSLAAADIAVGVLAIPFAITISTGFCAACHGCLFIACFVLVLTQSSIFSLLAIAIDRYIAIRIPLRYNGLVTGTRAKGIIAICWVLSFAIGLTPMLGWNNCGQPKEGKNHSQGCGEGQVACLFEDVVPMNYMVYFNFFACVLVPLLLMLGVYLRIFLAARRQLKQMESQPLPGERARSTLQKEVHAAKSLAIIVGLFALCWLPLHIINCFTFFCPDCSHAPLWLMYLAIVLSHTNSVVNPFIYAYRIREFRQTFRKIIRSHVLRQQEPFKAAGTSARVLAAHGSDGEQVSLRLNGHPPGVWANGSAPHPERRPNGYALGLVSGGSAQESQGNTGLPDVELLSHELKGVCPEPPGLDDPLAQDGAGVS
Procedure: as §1

[4] = biological target: hADORA1/CHO (hA1 expressing) cells (Homo sapiens (Human), UniProt P30542); assay: cell-based; details: FLIPR inhibition, 10 μM adenosine, read-out: cAMP & FLIPR IC50 (nM) hA1
hADORA1/CHO (hA1 expressing) cells, sequence (P30542 whole entry): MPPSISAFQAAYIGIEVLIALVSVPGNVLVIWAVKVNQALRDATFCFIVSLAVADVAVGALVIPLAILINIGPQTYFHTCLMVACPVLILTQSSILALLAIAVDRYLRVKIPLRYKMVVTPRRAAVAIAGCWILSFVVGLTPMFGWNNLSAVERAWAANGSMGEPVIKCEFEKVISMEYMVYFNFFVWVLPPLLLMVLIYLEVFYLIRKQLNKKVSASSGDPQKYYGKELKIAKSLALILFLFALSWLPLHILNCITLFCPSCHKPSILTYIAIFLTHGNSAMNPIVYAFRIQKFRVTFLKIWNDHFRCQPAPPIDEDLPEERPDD

hA2b/CHO, sequence (P29275 whole entry): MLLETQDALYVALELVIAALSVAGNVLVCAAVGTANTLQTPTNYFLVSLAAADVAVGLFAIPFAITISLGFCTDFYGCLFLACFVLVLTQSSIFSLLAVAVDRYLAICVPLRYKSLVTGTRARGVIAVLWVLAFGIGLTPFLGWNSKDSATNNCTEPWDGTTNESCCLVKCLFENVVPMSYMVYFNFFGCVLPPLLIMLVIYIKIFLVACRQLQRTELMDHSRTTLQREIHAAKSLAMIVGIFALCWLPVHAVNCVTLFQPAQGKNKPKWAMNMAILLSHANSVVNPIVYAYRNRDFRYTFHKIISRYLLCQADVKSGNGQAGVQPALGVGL

| SMILES | IC50 [1] [nM] | IC50 [2] [nM] | IC50 [3] [nM] | IC50 [4] [nM] |
| --- | --- | --- | --- | --- |
| Cc1cnc2ccc(-c3nc(C(=O)NCCN(C)c4ccccn4)c(N)nc3-c3ncco3)cn12 [Example 240, 3-amino-N-(2-(methyl(pyridin-2-yl)amino)ethyl)-6-(3-methylimidazo[1,2-a]pyridin-6-yl)-5-(oxazol-2-yl)pyrazine-2-carboxamide] | 521 | 65 | 18 | 108 |
| COc1ccccc1CNC(=O)c1nc(-c2cc(C)nc(N)c2)c(-c2ccc(F)cc2)nc1N [Example 83, 3-amino-6-(2-amino-6-methylpyridin-4-yl)-5-(4-fluorophenyl)-N-(2-methoxybenzyl)pyrazine-2-carboxamide] | 547 | 116 | 2 | 132 |
| CN1CCCC1CNC(=O)c1nc(-c2ccc3ncc(C(F)(F)F)n3c2)c(-c2ncco2)nc1N (single isomer, unassigned) [Cmpd. 202, 3-amino-N-[[1-methylpyrrolidin-2-yl]methyl]-5-(1,3-oxazol-2-yl)-6-[3-(trifluoromethyl)imidazo[1,2-a]pyridin-6-yl]pyrazine-2-carboxamide] | 1130 | 105 | 17 | 6920 |
| CC(O)Cn1cc(-c2nc(C(=O)NCc3c(F)cccc3F)c(N)nc2-c2ncco2)ccc1=O (single isomer, unassigned) [Example 107, 3-amino-N-(2,6-difluorobenzyl)-6-(1-(2-hydroxypropyl)-6-oxo-1,6-dihydropyridin-3-yl)-5-(oxazol-2-yl)pyrazine-2-carboxamide] | 3490 | 166 | 76 | 341 |
| Cc1cnc2ccc(-c3nc(C(=O)NCCN(C)c4ccccc4)c(N)nc3-c3ncco3)cn12 [Example 244, 3-amino-N-(2-(methyl(phenyl)amino)ethyl)-6-(3-methylimidazo[1,2-a]pyridin-6-yl)-5-(oxazol-2-yl)pyrazine-2-carboxamide] | 157 | 31 | 16 | 260 |
| CNc1ccc(F)c(CNC(=O)c2nc(-c3ccc(=O)n(C)c3)c(-c3ncco3)nc2N)n1 [Example 50, 3-amino-N-[[3-fluoro-6-(methylamino)pyridin-2-yl]methyl]-6-(1-methyl-6-oxo-1,6-dihydropyridin-3-yl)-5-(1,3-oxazol-2-yl)pyrazine-2-carboxamide] | 249 | 85 | 33 | 90 |
| Cc1cnc2ccc(-c3nc(C(=O)NC[C@H]4CC(F)(F)CN4C)c(N)nc3-c3ncco3)cn12 [Example 162, (R)-3-amino-N-((4,4-difluoro-1-methylpyrrolidin-2-yl)methyl)-6-(3-methylimidazo[1,2-a]pyridin-6-yl)-5-(oxazol-2-yl)pyrazine-2-carboxamide] | 147 | 8.12 | 0.71 | 794 |
| Cc1cc(-c2nc(C(=O)NCc3c(F)cccc3F)c(N)nc2-c2ncco2)cc(C)n1 [Example 5, 3-amino-N-(2,6-difluorobenzyl)-6-(2,6-dimethylpyridin-4-yl)-5-(oxazol-2-yl)pyrazine-2-carboxamide] | ≥ 10000 | 219 | 28 | 10000 |
| COc1ccccc1CNC(=O)c1nc(-c2cc(C)nc(C)c2)c(-n2ccc(C)n2)nc1N [Example 75, 3-amino-6-(2,6-dimethylpyridin-4-yl)-N-(2-methoxybenzyl)-5-(3-methyl-1H-pyrazol-1-yl)pyrazine-2-carboxamide] | ≥ 10000 | 157 | 6.1 | 44 |
| Cc1cnc2ccc(-c3nc(C(=O)NCc4cccc(N5CCN(C)CC5)n4)c(N)nc3-c3ncco3)cn12 [Example 112, 3-amino-6-(3-methylimidazo[1,2-a]pyridin-6-yl)-N-((6-(4-methylpiperazin-1-yl)pyridin-2-yl)methyl)-5-(oxazol-2-yl)pyrazine-2-carboxamide] | 502 | 18 | 1.3 | 10000 |
| Cc1cnc2ccc(-c3nc(C(=O)NCC4(N(C)C)CC4)c(N)nc3-c3ccc(F)cc3)cn12 [Example 154, 3-amino-N-[[1-(dimethylamino)cyclopropyl]methyl]-5-(4-fluorophenyl)-6-[3-methylimidazo[1,2-a]pyridin-6-yl]pyrazine-2-carboxamide] | 1150 | 121 | 11 | 10000 |
| CC(O)Cn1cc(-c2nc(C(=O)NCc3c(F)cccc3F)c(N)nc2-c2ncco2)ccc1=O (single isomer, unassigned) [Example 108, 3-amino-N-(2,6-difluorobenzyl)-6-(1-(2-hydroxypropyl)-6-oxo-1,6-dihydropyridin-3-yl)-5-(oxazol-2-yl)pyrazine-2-carboxamide] | 132 | 3.6 | 0.6 | 55 |
| Nc1ccnc(CNC(=O)c2nc(-c3ccc4nccn4c3)c(-c3ncco3)nc2N)n1 [Example 95, 3-amino-N-[(4-aminopyrimidin-2-yl)methyl]-6-[imidazo[1,2-a]pyridin-6-yl]-5-(1,3-oxazol-2-yl)pyrazine-2-carboxamide] | 78 | 667 | 69 | 10000 |
| Cn1cc(-c2nc(CNC(=O)c3c(F)cccc3C(F)(F)F)c(N)nc2-c2ccc(F)cc2)ccc1=O [Example 7, N-[[3-amino-5-(4-fluorophenyl)-6-(1-methyl-6-oxo-1,6-dihydropyridin-3-yl)pyrazin-2-yl]methyl]-2-fluoro-6-(trifluoromethyl)benzamide] | 3860 | 237 | 166 | 98 |
| Cc1cnc2ccc(-c3nc(C(=O)NC[C@@H]4CCN(C(=O)C5CC5)C4)c(N)nc3-c3ncco3)cn12 [Cmpd. 221, 3-amino-N-[[(3S)-1-cyclopropanecarbonylpyrrolidin-3-yl]methyl]-6-[3-methylimidazo[1,2-a]pyridin-6-yl]-5-(1,3-oxazol-2-yl)pyrazine-2-carboxamide] | 1030 | 33 | 1.6 | 7540 |
| Cc1cc(-c2nc(C(=O)NCc3ccccc3Br)c(N)nc2-c2ccc(F)cc2)cc(C)n1 [Example 80, 3-amino-N-(2-bromobenzyl)-6-(2,6-dimethylpyridin-4-yl)-5-(4-fluorophenyl) pyrazine-2-carboxamide] | 4170 | 158 | 44 | 1400 |
| Cc1nc(CNC(=O)c2nc(-c3ccc4nccn4c3)c(-c3ncco3)nc2N)cs1 [Example 44, 3-amino-6-(imidazo[1,2-a]pyridin-6-yl)-N-((2-methylthiazol-4-yl)methyl)-5-(oxazol-2-yl)pyrazine-2-carboxamide] | 2110 | 786 | 131 | 10000 |
| Cc1cnc2ccc(-c3nc(C(=O)NCCN4CCCC4=O)c(N)nc3-c3ncco3)cn12 [Example 208, 3-amino-6-(3-methylimidazo[1,2-a]pyridin-6-yl)-5-(oxazol-2-yl)-N-(2-(2-oxopyrrolidin-1-yl)ethyl)pyrazine-2-carboxamide] | 1230 | 19 | 8.9 | 9540 |
| Cc1cnc2ccc(-c3nc(C(=O)N[C@@H]4CCCOC4)c(N)nc3-c3ncco3)cn12 (single isomer, unassigned; isomer 2) [Example 164, 3-amino-6-(3-methylimidazo[1,2-a]pyridin-6-yl)-5-(oxazol-2-yl)-N-(tetrahydro-2H-pyran-3-yl)pyrazine-2-carboxamide (isomer 2)] | 479 | 12.7 | 0.94 | > 10000 |
| CN1CCC[C@@H]1CNC(=O)c1nc(-c2ccc3ncn(C)c3c2)c(-n2nccn2)nc1N [Example 131, (R)-3-amino-6-(1-methyl-1H-benzo[d]imidazol-6-yl)-N-((1-methylpyrrolidin-2-yl)methyl)-5-(2H-1,2,3-triazol-2-yl)pyrazine-2-carboxamide] | ≥ 10000 | 2700 | 332 | 10000 |
| Nc1nc(-c2ncco2)c(-c2ccc(=O)n(CCCO)c2)nc1C(=O)NCc1c(F)cccc1F [Example 102, 3-amino-N-[(2,6-difluorophenyl)methyl]-6-[1-(3-hydroxypropyl)-6-oxo-1,6-dihydropyridin-3-yl]-5-(1,3-oxazol-2-yl)pyrazine-2-carboxamide] | 120 | 48 | 9.9 | 78 |
| Cc1cnc2ccc(-c3nc(C(=O)NCCc4nccn4C)c(N)nc3-c3ncco3)cn12 [Example 205, 3-amino-N-(2-(1-methyl-1H-imidazol-2-yl)ethyl)-6-(3-methylimidazo[1,2-a]pyridin-6-yl)-5-(oxazol-2-yl)pyrazine-2-carboxamide] | 67 | 7.5 | 2 | 153 |
| Cc1cnc2ccc(-c3nc(CNC(=O)[C@@H]4CCCN4C)c(N)nc3-c3ccc(F)cc3)cn12 [Example 156, (2S)—N-[[3-amino-5-(4-fluorophenyl)-6-[3-methylimidazo[1,2-a]pyridin-6-yl]pyrazin-2-yl]methyl]-1-methylpyrrolidine-2-carboxamide] | 1200 | 41 | 4.4 | 83 |
| Cc1cnc2ccc(-c3nc(C(=O)NCC4CCCCN4C)c(N)nc3-c3ncco3)cn12 (single isomer, unassigned; isomer 1) [Example 124, 3-amino-6-(3-methylimidazo[1,2-a]pyridin-6-yl)-N-((1-methylpiperidin-2-yl)methyl)-5-(oxazol-2-yl)pyrazine-2-carboxamide (isomer 1)] | ≥ 10000 | ≥ 10000 | 2260 | 10000 |
